Active and inactive are the calls of the source. How the calls were made is not given here.
Assay: concentration series on yeast TOR reporter LAP4 – cell-based, MLPCN hits, flow cytometry, dose response (AID 2745);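 further: yeast exposed to compound for three hours at 30 degrees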
Settings: S. cerevisiae LAP4-GFP reporter, flow cytometry fluorescence; at 33 µM (top of the series)

Row | SMILES | LAP4-GFP fluorescence (kMESF)
1 | Cc1cccc(C(=O)NNC(=S)NC(=O)c2ccccc2)c1 | 9.62 kMESF (inactive)
2 | COc1ccc(C2=CC3=C(Br)C(=O)C(C)(O)C(=O)C3=CO2)cc1 (centres undefined) | 0.34 kMESF (inactive)
3 | CCc1ccc(C(=O)/C=C/c2ccc([N+](=O)[O-])o2)cc1 | 10.5 kMESF (inactive)
4 | C=CCn1c(C)c(/C=C/c2cc[n+](C)cc2)c2ccccc21 | 10.8 kMESF (inactive)
5 | Cc1cc(Br)c2c(c1)/C(=C/C(=O)c1cccs1)C(=O)N2 | 6.22 kMESF (inactive)
6 | O=C1C=CC(=O)N1c1ccc(Sc2ccc([N+](=O)[O-])cc2)cc1 | 5.47 kMESF (inactive)
7 | COC(CNC(=O)c1ccc2c3c(onc13)-c1ccccc1C2=O)OC | 2.86 kMESF (inactive)
8 | CCOC(=O)Cn1cc(/C=C/[N+](=O)[O-])c2ccccc21 | 8.42 kMESF (inactive)
9 | CCN(CC)c1ccc2cc(-c3nc4ccccc4[nH]3)c(=O)oc2c1 | 3.03 kMESF (inactive)
10 | COc1ccc(N=Cc2nc(-c3ccccc3)oc2OC(=O)c2ccccc2)cc1 | 4.09 kMESF (inactive)
11 | O=C(NNC(=S)NC(=O)c1ccco1)c1ccc(F)cc1 | 5.61 kMESF (inactive)
12 | CC[C@@]1(c2ccccc2OC)ON(c2ccccc2C(F)(F)F)C1=O | 6.51 kMESF (inactive)
13 | COc1cc(/C=C2/C(=O)c3cccc([N+](=O)[O-])c3C2=O)c(Br)cc1O | 3.64 kMESF (inactive)
14 | O=C(CCS(=O)(=O)c1ccccc1)Nc1nc(-c2ccccn2)cs1 | 3.91 kMESF (inactive)
15 | Cc1ccc(C2=NN(S(C)(=O)=O)C(c3ccc4c(c3)OCO4)C2)cc1 (centres undefined) | 4.78 kMESF (inactive)
16 | CCCc1cc(NCc2ccccn2)n2nc(C)c(-c3ccccc3)c2n1 | 9.24 kMESF (inactive)
17 | CCCCc1ccc(NC(=O)CC(C)=O)cc1 | 3.54 kMESF (inactive)
18 | CC(=O)Oc1oc(-c2ccccc2)nc1C=Nc1ccc(N(C)C)cc1 | 7.39 kMESF (inactive)
19 | O=C(/C=C/c1cccc(Cl)c1)c1nc2ccccc2[nH]1 | 4.71 kMESF (inactive)
20 | Cc1ccc(NC(=O)c2nc(S(=O)(=O)Cc3ccccc3)ncc2Cl)cc1 | 9.01 kMESF (inactive)
21 | CC(=O)Nc1ncnc2c1c(-c1ccc(Cl)cc1)nn2C(C)(C)C | 5.09 kMESF (inactive)
22 | O=C(Nc1cccc(-c2csc(Nc3ccccc3)n2)c1)c1ccccc1 | 4.18 kMESF (inactive)
23 | Cc1ccc(N2C(=O)C(Cl)=C(Nc3c(C)n(C)n(-c4ccccc4)c3=O)C2=O)cc1 | 2.87 kMESF (inactive)

Row | SMILES | LAP4-GFP fluorescence (kMESF)
24 | CCCS(=O)(=O)c1nnnn1-c1cccc(OC)c1 | 18.2 kMESF (inactive)
25 | Nc1ccc2ccc3cccc[n+]3c2c1 | 10.3 kMESF (inactive)
26 | Cc1cc(C)c(S(=O)(=O)N2CCC(C(=O)NCc3ccc(Cl)cc3Cl)CC2)c(C)c1 | 4.35 kMESF (inactive)
27 | COc1ccc(CCNC2=C(Cl)C(=O)N(CCc3ccccc3)C2=O)cc1OC | 3.31 kMESF (inactive)
28 | Cc1[nH]c2ccccc2c1C(=O)COC(=O)c1ccc([N+](=O)[O-])s1 | 6.02 kMESF (inactive)
29 | O=C1C(Cl)=C(Nc2ccccc2O)C(=O)N1c1ccccc1 | 4.81 kMESF (inactive)
30 | COc1cc(C=C2C(=O)c3ccccc3C2=O)cc(OC)c1 | 4.28 kMESF (inactive)
31 | COc1ccccc1N=Cc1nc(-c2ccccc2)oc1OC(C)=O | 8.6 kMESF (inactive)
32 | CC(=O)NN1C(=O)/C(=C/c2ccc(Br)o2)SC1=S | 2.52 kMESF (inactive)
33 | O=C1C(Cl)=C(NCCc2ccccc2)C(=O)N1CCc1ccccc1 | 5.91 kMESF (inactive)
34 | CC[C@H](C)/C=C(C)/C=C/C1=CC2=C(Cl)C(=O)[C@@](C)(OC(C)=O)C(=O)C2=CO1 | 0.86 kMESF (inactive)
35 | Oc1c(C(Nc2cccc(C(F)(F)F)c2)c2ccncc2)ccc2cccnc12 (centres undefined) | 11.8 kMESF (inactive)
36 | COc1ccc([C@]2(C(C)C)ON(c3ccccc3C(F)(F)F)C2=O)cc1 | 4.65 kMESF (inactive)
37 | O=c1c2cc(Cl)ccc2nc(-c2ccc([N+](=O)[O-])cc2)n1O | 5.26 kMESF (inactive)
38 | Oc1c(CN2CCN(c3ccc(F)cc3)CC2)cc(Cl)c2cccnc12 | 13.1 kMESF (inactive)
39 | COc1ccc(N2C(=O)CC(Sc3ncn[nH]3)C2=O)c(OC)c1 (centres undefined) | 13.7 kMESF (inactive)
40 | N/C(=N\OC(=O)c1cc(Br)ccc1Cl)c1ccccn1 | 12.2 kMESF (inactive)
41 | CC(C)(C)c1cc(C(c2cccnc2)N2CCN(CCO)CC2)cc(C(C)(C)C)c1O (centres undefined) | 7.26 kMESF (inactive)
42 | Cc1cccc(/C=C/C(=O)c2ccc([N+](=O)[O-])o2)c1 | 9.32 kMESF (inactive)
43 | O=C1CCN(S(=O)(=O)c2ccccc2)CCN1CCOCc1ccc(F)cc1 | 2.43 kMESF (inactive)
44 | O=C1c2ccccc2C(=O)N1OS(=O)(=O)c1ccccc1 | 8.7 kMESF (inactive)
45 | O=C(Oc1ccnc2cc(Cl)ccc12)N1CCOCC1 | 2.63 kMESF (inactive)
46 | O=C(Nc1ccc(NC(=O)c2cc3ccccc3o2)cc1)c1ccco1 | 3.31 kMESF (inactive)

Row | SMILES | LAP4-GFP fluorescence (kMESF)
47 | CC1=C(C)/C(=N\OS(=O)(=O)c2ccc(C)cc2)C=CC1=O | 5.77 kMESF (inactive)
48 | CC(=O)CSc1ncnc2c1cnn2-c1ccccc1 | 3.61 kMESF (inactive)
49 | Cc1ccc(C(=O)/C=C/C(=O)c2ccc(C)cc2)cc1 | 6.7 kMESF (inactive)
50 | COc1ccc(N=Cc2nc(-c3ccccc3)oc2OC(C)=O)cc1 | 4.93 kMESF (inactive)
51 | O=C(O)c1ccccc1SC1CC(=O)N(c2ccc3c(c2)OCO3)C1=O (centres undefined) | 5.3 kMESF (inactive)
52 | COc1ccc(-c2cc3nc4n(c(=O)c3s2)CCC4)cc1 | 3.68 kMESF (inactive)
53 | CCCCNc1c2c3c(cccc3n(C)c1=O)C(=O)c1ccccc1-2 | 11.2 kMESF (inactive)
54 | N/C(Cc1ccc(Cl)cc1Cl)=N\OC(=O)c1ccccc1 | 9.94 kMESF (inactive)
55 | Oc1c(C(Nc2nc3ccccc3s2)c2ccco2)ccc2cccnc12 (centres undefined) | 24.1 kMESF (inactive)
56 | CCOc1ccc(N/N=C(/C#N)C(N)=O)cc1 | 9.57 kMESF (inactive)
57 | CN(C)C(=O)Oc1ccnc2cc(Cl)ccc12 | 2.83 kMESF (inactive)
58 | Cc1ccc2[nH]cc(/C=C/c3cc[n+](C)cc3)c2c1 | 5.34 kMESF (inactive)
59 | CC1=C/C(=N\OS(=O)(=O)c2ccccc2)C(C)=CC1=O | 4.1 kMESF (inactive)
60 | N/C(=N\OC(=O)c1ccccc1Cl)c1ccc(Cl)cc1 | 11.3 kMESF (inactive)
61 | COC(=O)CCS(=O)(=O)c1nc(-c2ccccc2)cc(C(F)(F)F)n1 | 20.1 kMESF (inactive)
62 | Cc1c(NC2=C(Cl)C(=O)N(c3ccccc3)C2=O)c(=O)n(-c2ccccc2)n1C | 6.71 kMESF (inactive)
63 | O=C(/C=C/c1ccccc1)c1cc(Br)ccc(=O)c1O | -10.1 kMESF (inactive)
64 | Cc1ccc(C)c(/C=C/C(=O)c2ccccc(=O)c2O)c1 | -0.2 kMESF (inactive)
65 | O=C(c1ccccn1)c1conc1C(=O)c1ccc(Br)cc1 | 9.07 kMESF (inactive)
66 | O=S(=O)(/N=C(/Sc1ccccc1)c1ccccc1)c1ccccc1 | 11.4 kMESF (inactive)
67 | C[C@@]12C(=O)OC(=O)[C@]1(C)C1CCC2O1 | 9.15 kMESF (inactive)
68 | Cc1c(C)c2ccc(Oc3ccc([N+](=O)[O-])cc3C(F)(F)F)c(C)c2oc1=O | 3.47 kMESF (inactive)
69 | O=c1c2sc(-c3ccccc3)cc2nc2n1CCC2 | 5.96 kMESF (inactive)

Row | SMILES | LAP4-GFP fluorescence (kMESF)
70 | CCN(CC)c1ccc(/C=C2\C(=O)c3ccc(C(=O)O)cc3C2=O)cc1 | 392 kMESF (inactive)
71 | Oc1ccc2ccccc2c1/C=N/Nc1nnc(-c2ncc[nH]2)c2ccccc12 | -7.45 kMESF (inactive)
72 | Cc1c(NC2=C(Cl)C(=O)N(c3ccccc3Cl)C2=O)c(=O)n(-c2ccccc2)n1C | 3.78 kMESF (inactive)
73 | CCOc1ccc(N2C(=O)C(Cl)=C(Nc3ccccc3O)C2=O)cc1 | 5.81 kMESF (inactive)
74 | Cc1ccc(S(=O)(=O)Cc2cc(F)c([N+](=O)[O-])cc2[N+](=O)[O-])cc1 | 1.59 kMESF (inactive)
75 | Clc1cnc(N/N=C/c2cccs2)c(Cl)c1 | 6.2 kMESF (inactive)
76 | O=C(NNC(=S)NC(=O)C12CC3CC(CC(C3)C1)C2)c1ccncc1 | 15.7 kMESF (inactive)
77 | COc1ccc(-c2cc3cc(C(=O)O)ccn3c2C(=O)c2ccccc2)cc1 | 6.45 kMESF (inactive)
78 | COc1ccc2c(c1)c(/C=C/c1cc[n+](C)cc1)cn2C | 4.11 kMESF (inactive)
79 | Cc1ccccc1N1C(=O)C(Cl)=C(N2CCN(c3ccccc3)CC2)C1=O | 3.41 kMESF (inactive)
80 | COc1ccc(N2CCN(C(=O)c3ccccc3)CC2)c([N+](=O)[O-])c1 | 6.87 kMESF (inactive)
81 | CC1(C(=O)NC(=S)NNC(=O)c2ccncc2)CCCCC1 | 4.99 kMESF (inactive)
82 | Cc1cc(=O)n2c3c(sc2n1)C(=O)N(Cc1ccccc1)C3=O | 9.31 kMESF (inactive)
83 | O=C(/C=C/Sc1ncn[nH]1)c1ccc(Cl)cc1 | 15.9 kMESF (inactive)
84 | CCCOc1ccc(C(=O)NNC(=S)NC(=O)c2ccccc2)cc1 | 8.22 kMESF (inactive)
85 | Cc1ccc(-c2nn(C(C)(C)C)c3ncnc(N)c23)cc1 | 8.82 kMESF (inactive)
86 | CCN(CC)C(=O)Oc1ccnc2cc(Cl)ccc12 | 7.62 kMESF (inactive)
87 | Cc1cc(NC(=O)c2cccnc2Cl)ccc1NC(=O)c1cc2ccccc2o1 | 3.41 kMESF (inactive)
88 | O=[N+]([O-])c1cnc(Sc2ccncn2)s1 | 17.8 kMESF (inactive)
89 | COc1cc(/C=C/[N+](=O)[O-])ccc1O | 7.18 kMESF (inactive)

Reference: PubChem BioAssay AID2745 (NMMLSC, 2010)
